The values below are quoted from earlier work in US20040259899A1, “Combination therapy for constipation” (priority 2003, published 2004).

The structures appear in SMILES notation.

The conditions of the data set: white crystalline powder as provided (Mallinckrodt Pharmaceuticals).

Take `C[N@+]1(CC2CC2)CC[C@]23c4c5ccc(O)c4O[C@H]2C(=O)CC[C@@]3(O)[C@H]1C5` [Methylnaltrexone, N-cyclopropylmethylnoroxy-morphine-methobromide]: the solubility in water result is “freely soluble”.
